Assay results taken from ChEMBL document CHEMBL1122963, “[3H]Batrachotoxinin A 20 alpha-benzoate binding to voltage-sensitive sodium channels: a rapid and quantitative assay for local anesthetic activity in a variety of drugs” (J Med Chem, 1985).

Assays:
[1] = biological target: T1, Sodium channel alpha subunits; brain (Types I, II, III) (Homo sapiens, UniProt P35498+Q99250+Q9NY46); assay: Inhibition of binding of Batrachotoxinin [3H]BTX-B to high affinity sites on voltage dependent sodium channels in a vesicular preparation from guinea pig cerebral cortex; type: tissue-based, Cavia porcellus
[2] = biological target: T1, Sodium channel alpha subunits; brain (Types I, II, III); conditions: Cavia porcellus; Cerebral cortex; at 10 µM

Compound	IC50 [1] [µM]	inhibition [2] [%]
COc1ccc(CCN(C)CCCC2(c3ccc(OC)c(OC)c3)S(=O)(=O)CCCS2(=O)=O)cc1OC	13.5	
CCCC(C(=O)OCC[N+](C)(CC)CC)(c1ccccc1)c1ccccc1.[I-]	4.2	72
COc1cccc(OC)c1OCCNCC1=COc2ccccc2O1	2.4	67.7
CC[N+](CC)(CC)CC(=O)Nc1c(C)cccc1C.[Cl-]	97	52.4
CC[C@@H]1CN2CC[C@@H]1C[C@H]2[C@H](O)c1ccnc2ccc(OCCC(C)C)cc12	0.74	95.7
C=C(c1ccc(Oc2cccc3ccccc23)cc1)C1COC2(CCCCC2)OO1.Cl (centres undefined)	7	68.3
CC(C)(C)NCC(CO)O/N=C1\c2ccccc2C2C=CC=CC12 (centres undefined)	3.7	72.5
CCCCC1=C(N(C)C)c2cc3c(cc2C1)OCO3	12.5	45
Cl.NCCCCCCNS(=O)(=O)c1cccc2ccccc12	22	33.3
C[N+](C)(C)CCOC(c1ccccc1)c1ccccc1.[I-]	64	69
CCCC[N+]1(C)CCCCC1C(=O)Nc1c(C)cccc1C.[I-] (centres undefined)	4.8	64.5
C=CCC1(C(C)CCC)C(=O)NC(=O)NC1=O (centres undefined)		4.4
CC(=O)Nc1ccc(OCC(O)CNC(C)C)cc1 (centres undefined)		8.4
CC(C)(C)NCC(O)COc1cccc2c1CCCC2=O (centres undefined)		27.3
CC(C)(C)NC[C@H](O)COc1nsnc1N1CCOCC1		8
CC(C)CCC[C@@H](C)[C@H]1CC[C@H]2[C@@H]3CC=C4C[C@@H](O)CC[C@]4(C)[C@H]3CC[C@]12C		3.3
CC(C)NCC(O)c1ccc([N+](=O)[O-])cc1 (centres undefined)		7.9
CC(C)[C@@]1(O)[C@@H](OC(=O)c2cc[nH]c2)[C@@]2(O)[C@]3(C)C[C@@]4(O)O[C@@]5([C@H](O)[C@@H](C)CC[C@]35O)[C@@]2(O)[C@@]41C		0
CC/C(=C(/CC)c1ccc(O)cc1)c1ccc(O)cc1		30.1
CCC1(c2ccccc2)C(=O)NC(=O)NC1=O		5.4
CCCCNc1ccc(C(=O)OCCN(C)C)cc1		72
CCCCOc1cc(CC2CNC(=O)N2)ccc1OC (centres undefined)		14.1
CC[N+](CC)(CC)CC		1.4

Compound	IC50 [1] [µM]	inhibition [2] [%]
CN(C)C/C=C(/c1ccc(Br)cc1)c1cccnc1		34.6
CN(C)CCCn1c2c(c3ccccc31)CCCCCC2		42.4
COC(=O)C1=C(C)NC(C)=C(C(=O)OC)C1c1ccccc1[N+](=O)[O-]		26
COC(=O)[C@H]1[C@H]2C[C@H]3c4[nH]c5ccccc5c4CCN3C[C@@H]2CC[C@@H]1O		33.7
COC(=O)[C@H]1[C@H]2C[C@H]3c4[nH]c5ccccc5c4CCN3C[C@H]2CC[C@@H]1O		13.1
COc1cc2c(cc1OC)-c1c/c(=N\c3c(C)cc(C)cc3C)n(C)c(=O)n1CC2		17.4
COc1cc2c3cc1Oc1cc(ccc1O)C[C@@H]1c4c(cc(OC)c(O)c4Oc4ccc(cc4)C[C@@H]3N(C)CC2)CC[N+]1(C)C		3
COc1ccc(CCN(C)CCCC(C#N)(c2ccc(OC)c(OC)c2)C(C)C)cc1OC (centres undefined)		74.4
COc1ccc(CN(CCN(C)C)c2ccccn2)cc1		44.5
COc1ccc2c3c1O[C@H]1[C@@H](O)C=C[C@H]4[C@@H](C2)N(C)CC[C@@]341		5.7
C[C@H](Cc1ccccc1)Nc1ncnc2c1ncn2[C@@H]1O[C@H](CO)[C@@H](O)[C@H]1O		2.2
Cn1c(=O)c2nc(-c3ccccc3)[nH]c2n(C)c1=O		10.9
NC(=O)N1c2ccccc2C=Cc2ccccc21		1.6
NCC(CC(=O)O)c1ccc(Cl)cc1 (centres undefined)		6.2
NC[C@H](CC(=O)O)c1ccc(Cl)cc1		11.7
O=C(CCCN1CCC(O)(c2ccc(Cl)cc2)CC1)c1ccc(F)cc1		85.5
O=C(O)c1ccccc1Nc1cccc(C(F)(F)F)c1		26.7
O=C1NC(=O)C(c2ccccc2)(c2ccccc2)N1		18.5
CCN(CC)CCCN1C(=O)CC2(CCCc3ccccc32)C1=O (racemic; form 1) [listing 1 of 2 here]	94	
CCN(CC)CCCN1C(=O)CC2(CCCc3ccccc32)C1=O (racemic; form 1) [listing 2 of 2 here]		25.7
CCN(CC)CCCN1C(=O)CC2(CCCc3ccccc32)C1=O (racemic; form 2) [listing 1 of 2 here]	12	
CCN(CC)CCCN1C(=O)CC2(CCCc3ccccc32)C1=O (racemic; form 2) [listing 2 of 2 here]		54.1
CN(C)CCC=C1c2ccccc2CCc2ccccc21 [AMITRIPTYLINE]	< 10	73.8

Compound	IC50 [1] [µM]	inhibition [2] [%]
OC(c1ccccc1)(c1ccccc1)C1CCNCC1 [AZACYCLONOL]	14	43.2
CCCCOc1cc(C(=O)OCCN(CC)CC)ccc1N [BENOXINATE]	2.9	73.4
CC(C)COCC(CN(Cc1ccccc1)c1ccccc1)N1CCCC1 (centres undefined) [BEPRIDIL]	0.84	96.2
OC(CCN1CCCCC1)(c1ccccc1)C1CC2C=CC1C2 (centres undefined) [BIPERIDEN]	< 10	62.9
CCCCN1CCCCC1C(=O)Nc1c(C)cccc1C (centres undefined) [BUPIVACAINE]		63.4
CCCCN(CCCC)CCCOC(=O)c1ccc(N)cc1 [BUTACAINE]	2.7	75.3
COc1ccc(OC)c(C(O)C(C)NC(C)(C)C)c1 (centres undefined) [BUTOXAMINE]	27	26.8
Cn1c(=O)c2c(ncn2C)n(C)c1=O [CAFFEINE]	660	9.7
C[N+](C)(CC(=O)Nc1ccccc1)CC(=O)Nc1ccccc1.[Cl-] [CARCAINIUM CHLORIDE]	3.9	71.6
CN(C)CCC(c1ccc(Cl)cc1)c1ccccn1 (centres undefined) [CHLORPHENIRAMINE]	10	49.7
CN(C)CCCN1c2ccccc2Sc2ccc(Cl)cc21 [CHLORPROMAZINE]	4.3	72.2
CN(C)CC/C=C1/c2ccccc2Sc2ccc(Cl)cc21 [CHLORPROTHIXENE]	< 10	55.2
CN(C)CCCN1c2ccccc2CCc2ccc(Cl)cc21 [CLOMIPRAMINE]	< 10	76.6
CC1CCCCN1CCCOC(=O)c1ccc(OC2CCCCC2)cc1 (centres undefined) [CYCLOMETHYCAINE]	2	81.9
CN1CCC(=C2c3ccccc3C=Cc3ccccc32)CC1 [CYPROHEPTADINE]	1	83
CNCCCN1c2ccccc2CCc2ccccc21 [DESIPRAMINE]	2.4	80.3
CCCCOc1cc(C(=O)NCCN(CC)CC)c2ccccc2n1 [DIBUCAINE]		77.4
CCCN(CC)C(CC)C(=O)Nc1c(C)cccc1C (centres undefined) [ETIDOCAINE]		73.2
C=C[C@H]1CN2CC[C@H]1C[C@@H]2[C@@H](O)c1ccnc2ccc(OC)cc12 [QUINIDINE]		74.1
C=C[C@H]1CN2CC[C@H]1C[C@H]2[C@H](O)c1ccnc2ccc(OC)cc12 [QUININE]		69.3
O=C(CCCN1CCC2(CC1)C(=O)NCN2c1ccccc1)c1ccc(F)cc1 [SPIPERONE]		98.7
(-)-BUTACLAMOL		87.1
